Data taken from patent US6964949B2, “Pharmaceutical compositions for promoting the growth of gram-positive bacilli and increasing the acidity in the vagina and the use thereof” (Shanghai Jiao Da Onlly Co., Ltd., priority 2000, dated 2005).

Assays:
Gram-positive cocci = test: Experiment Example 5: influence of composition pH (10.0% maltose), specimen culture, Gram smear; format: cell-based; conditions: 1.0% yeast extract, 1.6% xanthan gum
Source text: (§1) • (1)The preparation of the compositions: Maltose was used to prepare the following compositions according to the method mentioned above: • A. 10.0% maltose, 1.0% yeast extract, 1.6% xanthan gum, pH adjusted to 4.4; • B. 10.0% maltose, 1.0% yeast extract, 1.6% xanthan gum, pH adjusted to 4.8; • C. 10.0% maltose, 1.0% yeast extract, 1.6% xanthan gum, pH adjusted to 5.1; • D. 10.0% maltose, 1.0% yeast extract, 1.6% xanthan gum, pH adjusted to 5.4; • E. 10.0% maltose, 1.0% yeast extract, 1.6% xanthan gum, pH adjusted to 5.8; • F. 10.0% maltose, 1.0% yeast extract, 1.6% xanthan gum, pH adjusted to 6.4; • G. 10.0% maltose, 1.0% yeast extract, 1.6% xanthan gum, pH adjusted to 6.8; • H. 10.0% maltose, 1.0% yeast extract, 1.6% xanthan gum, pH adjusted to 7.2; • (2)The preparation of the test tubes: Compositions prepared above were filled into the test tubes, with each tube containing 5 ml, sterilized, and kept until use for experiments. • (3)Specimen suspension: Vaginal secretion was taken from one of the patients suffering from typical bacterial vaginosis with a cotton swab, then the swab was washed in 2 ml sterilized Trypcase-soy Broth immediately, and thus the specimen suspension was ready. […] Then the tubes were placed in a candle jar and cultivated at 37° C. After 24 hours and 48 hours' culture, culture samples were taken respectively from each of the tubes, then the Gram smears of the samples were observed and the pH values of culture samples were tested.

Gram-positive bacilli = test: as above; format: cell-based; conditions: 1.0% yeast extract, 1.6% xanthan gum
Source text: as §1

[1] = pH of the composition 4.4, 24 hours
[2] = pH of the composition 4.4, 48 hours
[3] = pH of the composition 4.8, 24 hours
[4] = pH of the composition 4.8, 48 hours
[5] = pH of the composition 5.1, 24 hours
[6] = pH of the composition 5.4, 24 hours
[7] = pH of the composition 5.8, 24 hours
[8] = pH of the composition 5.8, 48 hours
[9] = pH of the composition 6.4, 24 hours
[10] = pH of the composition 6.4, 48 hours
[11] = pH of the composition 6.8, 24 hours
[12] = pH of the composition 6.8, 48 hours
[13] = pH of the composition 7.2, 24 hours
[14] = pH of the composition 7.2, 48 hours

SMILES: OC[C@H]1O[C@H](O[C@H]2[C@H](O)[C@@H](O)[C@H](O)O[C@@H]2CO)[C@H](O)[C@@H](O)[C@@H]1O [Maltose, maltose]
- Bacteria G + c (Gram-positive cocci), 24 hours culture (Gram-positive cocci; [1]): G + c, − (No or less than one bacterium per field of version under oil-immersion lens)
- Bacteria G + c (Gram-positive cocci), 48 hours culture (Gram-positive cocci; [2]): G + c, − (No or less than one bacterium per field of version under oil-immersion lens)
- Bacteria G + c (Gram-positive cocci), 24 hours culture (Gram-positive cocci; [3]): G + c, + (1-9 bacteria per field of vision under oil-immersion lens)
- Bacteria G + c (Gram-positive cocci), 48 hours culture (Gram-positive cocci; [4]): G + c, + (1-9 bacteria per field of vision under oil-immersion lens)
- Bacteria G + c (Gram-positive cocci), 24 hours culture (Gram-positive cocci; [5]): G + c, + (1-9 bacteria per field of vision under oil-immersion lens)
- Bacteria G + c (Gram-positive cocci), 48 hours culture (Gram-positive cocci; pH of the composition 5.1, 48 hours): G + c, ++ (About 10-99 bacteria per field of vision under oil-immersion lens)
- Bacteria G + c (Gram-positive cocci), 24 hours culture (Gram-positive cocci; [6]): G + c, + (1-9 bacteria per field of vision under oil-immersion lens)
- Bacteria G + c (Gram-positive cocci), 48 hours culture (Gram-positive cocci; pH of the composition 5.4, 48 hours): G + c, − (No or less than one bacterium per field of version under oil-immersion lens)
- Bacteria G + c (Gram-positive cocci), 24 hours culture (Gram-positive cocci; [7]): G + c, + (1-9 bacteria per field of vision under oil-immersion lens)
- Bacteria G + c (Gram-positive cocci), 48 hours culture (Gram-positive cocci; [8]): G + c, + (1-9 bacteria per field of vision under oil-immersion lens)
- Bacteria G + c (Gram-positive cocci), 24 hours culture (Gram-positive cocci; [9]): G + c, + (1-9 bacteria per field of vision under oil-immersion lens)
- Bacteria G + c (Gram-positive cocci), 48 hours culture (Gram-positive cocci; [10]): G + c, + (1-9 bacteria per field of vision under oil-immersion lens)
- Bacteria G + c (Gram-positive cocci), 24 hours culture (Gram-positive cocci; [11]): G + c, − (No or less than one bacterium per field of version under oil-immersion lens)
- Bacteria G + c (Gram-positive cocci), 48 hours culture (Gram-positive cocci; [12]): G + c, + (1-9 bacteria per field of vision under oil-immersion lens)
- Bacteria G + c (Gram-positive cocci), 24 hours culture (Gram-positive cocci; [13]): G + c, − (No or less than one bacterium per field of version under oil-immersion lens)
- Bacteria G + c (Gram-positive cocci), 48 hours culture (Gram-positive cocci; [14]): G + c, − (No or less than one bacterium per field of version under oil-immersion lens)
- Bacteria G + b (Gram-positive bacilli), 24 hours culture (Gram-positive bacilli; [1]): G + b, −˜+
- Bacteria G + b (Gram-positive bacilli), 48 hours culture (Gram-positive bacilli; [2]): G + b, −˜+
- Bacteria G + b (Gram-positive bacilli), 24 hours culture (Gram-positive bacilli; [3]): G + b, + (1-9 bacteria per field of vision under oil-immersion lens)
- Bacteria G + b (Gram-positive bacilli), 48 hours culture (Gram-positive bacilli; [4]): G + b, + (1-9 bacteria per field of vision under oil-immersion lens)
- Bacteria G + b (Gram-positive bacilli), 24 hours culture (Gram-positive bacilli; [5]): G + b, + (1-9 bacteria per field of vision under oil-immersion lens)
- Bacteria G + b (Gram-positive bacilli), 24 hours culture (Gram-positive bacilli; [6]): G + b, +++ (About 100 bacteria or more per field vision under oil-immersion lens, even uncountable)
- Bacteria G + b (Gram-positive bacilli), 24 hours culture (Gram-positive bacilli; [7]): G + b, ++ (About 10-99 bacteria per field of vision under oil-immersion lens)
- Bacteria G + b (Gram-positive bacilli), 48 hours culture (Gram-positive bacilli; [8]): G + b, +++ (About 100 bacteria or more per field vision under oil-immersion lens, even uncountable)
- Bacteria G + b (Gram-positive bacilli), 24 hours culture (Gram-positive bacilli; [9]): G + b, + (1-9 bacteria per field of vision under oil-immersion lens)
- Bacteria G + b (Gram-positive bacilli), 48 hours culture (Gram-positive bacilli; [10]): G + b, +++ (About 100 bacteria or more per field vision under oil-immersion lens, even uncountable)
- Bacteria G + b (Gram-positive bacilli), 24 hours culture (Gram-positive bacilli; [11]): G + b, ++ (About 10-99 bacteria per field of vision under oil-immersion lens)
- Bacteria G + b (Gram-positive bacilli), 48 hours culture (Gram-positive bacilli; [12]): G + b, +++ (About 100 bacteria or more per field vision under oil-immersion lens, even uncountable)
- Bacteria G + b (Gram-positive bacilli), 24 hours culture (Gram-positive bacilli; [13]): G + b, ++ (About 10-99 bacteria per field of vision under oil-immersion lens)
- Bacteria G + b (Gram-positive bacilli), 48 hours culture (Gram-positive bacilli; [14]): G + b, +++ (About 100 bacteria or more per field vision under oil-immersion lens, even uncountable)
